Results reported in PubChem BioAssay AID330 (DTP/NCI, 2004).
Several values for one entry are separate records, joined by “and”; a condition that tells them apart may be missing. Equal entries are not always repeated. Inconclusive results and toxic doses are left out.

Test system: P388 leukemia ip, CD2F1 mice, survival T/C
Test: NCI In Vivo Anticancer Drug Screen. Data for tumor model P388 Leukemia (intraperitoneal) in CD2F1 (CDF1) mice
Details: endpoint: median survival time, higher = longer survival
In short: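 Mice carrying the transplanted tumor received test compound or vehicle. Survival was recorded in each group, and the value is the treated-group measurement divided by that of the vehicle-treated control group.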

[1] = dose: 50.0 mg/kg/injection, schedule: Q01DX005 (ip), vehicle: saline with Tween-80
[2] = dose: 100.0 mg/kg/injection, schedule: Q01DX005 (ip), vehicle: saline with Tween-80
[3] = dose: 200.0 mg/kg/injection, schedule: Q01DX005 (ip), vehicle: saline with Tween-80
[4] = dose: 100.0 mg/kg/injection, schedule: Q04DX003 (ip), vehicle: saline with Tween-80
[5] = dose: 200.0 mg/kg/injection, schedule: Q04DX003 (ip), vehicle: saline with Tween-80
[6] = dose: 400.0 mg/kg/injection, schedule: Q04DX003 (ip), vehicle: saline with Tween-80
[7] = dose: 50.0 mg/kg/injection, schedule: Q01DX009 (ip), vehicle: saline with Tween-80
[8] = dose: 100.0 mg/kg/injection, schedule: Q01DX009 (ip), vehicle: saline with Tween-80
[9] = dose: 200.0 mg/kg/injection, schedule: Q01DX009 (ip), vehicle: saline with Tween-80
[10] = dose: 12.5 mg/kg/injection, schedule: Q01DX009 (ip), vehicle: saline with Tween-80
[11] = dose: 6.25 mg/kg/injection, schedule: Q01DX005 (ip), vehicle: saline with Tween-80
[12] = dose: 12.5 mg/kg/injection, schedule: Q01DX005 (ip), vehicle: saline with Tween-80
[13] = dose: 400.0 mg/kg/injection, schedule: Q01DX009 (ip), vehicle: saline with Tween-80
[14] = dose: 25.0 mg/kg/injection, schedule: Q01DX009 (ip), vehicle: saline with Tween-80

With `O=[N+]([O-])c1cccc2c1ccc1nonc12` the T/C [1] was 99 % of control, the T/C [2] was 94 % of control and the T/C [3] was 97 % of control.
For `CC(=O)C1(CCC(C)(S(=O)(=O)c2ccccc2)S(=O)(=O)c2ccccc2)CCCCC1=O` (stereo not given), the T/C (dose: 100.0 mg/kg/injection, schedule: Q01DX001 (ip), vehicle: Klucel (hydroxypropylcellulose) (HPC)) was 99 % of control, the T/C (dose: 200.0 mg/kg/injection, schedule: Q01DX001 (ip), vehicle: Klucel (hydroxypropylcellulose) (HPC)) was 100 % of control and the T/C (dose: 400.0 mg/kg/injection, schedule: Q01DX001 (ip), vehicle: Klucel (hydroxypropylcellulose) (HPC)) was 106 % of control.
`CC(C)CCOC(=O)CN(CC(=O)OCCC(C)C)c1ccccc1` was tested, and the T/C [4] was 104 % of control, the T/C [5] was 100 % of control and the T/C [6] was 95 % of control.
With `COC1CCC(COS(=O)(=O)c2ccc(C)cc2)O1` (stereo not given) the T/C [7] was 105 % of control, the T/C [8] was 100 % of control and the T/C [9] was 103 % of control.
`O=C1NC(=O)C(SSC2C(=O)NC(=O)NC2=O)C(=O)N1` was tested, and the T/C (dose: 50.0 mg/kg/injection, schedule: Q01DX009 (ip), vehicle: Klucel (hydroxypropylcellulose) (HPC)) was 109 % of control, the T/C (dose: 100.0 mg/kg/injection, schedule: Q01DX009 (ip), vehicle: Klucel (hydroxypropylcellulose) (HPC)) was 95 % of control and the T/C (dose: 200.0 mg/kg/injection, schedule: Q01DX009 (ip), vehicle: Klucel (hydroxypropylcellulose) (HPC)) was 94 % of control.
For `O=c1ccnc[nH]1`, the T/C (dose: 100.0 mg/kg/injection, schedule: Q04DX002 (ip), vehicle: saline with Tween-80) was 105 % of control and the T/C (dose: 200.0 mg/kg/injection, schedule: Q04DX002 (ip), vehicle: saline with Tween-80) was 93 % of control.
In the case of `CCCCCCCCCCCCCCCCCCCCCC(=O)Nc1ccn(C2OC(CO)C(O)C2O)c(=O)n1` (stereo not given), the T/C (dose: 1.56 mg/kg/injection, schedule: Q01DX009 (ip), vehicle: saline with Tween-80) is reported as 155 % of control, the T/C (dose: 3.12 mg/kg/injection, schedule: Q01DX009 (ip), vehicle: saline with Tween-80) is reported as 198 % of control and 209 % of control and the T/C (dose: 6.25 mg/kg/injection, schedule: Q01DX009 (ip), vehicle: saline with Tween-80) is reported as 106 % of control and 206 % of control and 235 % of control. The T/C [10] was 256 % of control and 309 % of control and the T/C [8] was 195 % of control.
With `N#C/C(=C\c1ccccn1)c1ccc(Cl)cc1` the T/C (dose: 18.75 mg/kg/injection, schedule: Q01DX009 (none), vehicle: saline) was 100 % of control, the T/C (dose: 37.5 mg/kg/injection, schedule: Q01DX009 (none), vehicle: saline) was 99 % of control and the T/C (dose: 75.0 mg/kg/injection, schedule: Q01DX009 (none), vehicle: saline) was 90 % of control.
`CCC[CH2][Sn]1([CH2]CCC)[O]C(=O)c2c(Cl)c(Cl)c(Cl)c(Cl)c2C(=O)[O]1` was tested, and the T/C (dose: 1.56 mg/kg/injection, schedule: Q01DX005 (ip), vehicle: saline with Tween-80) was 110 % of control and 115 % of control, the T/C (dose: 3.13 mg/kg/injection, schedule: Q01DX005 (ip), vehicle: saline with Tween-80) was 119 % of control and 120 % of control and the T/C [11] was 119 % of control and 120 % of control.
For `Cc1cc(C)c(O)c(CS(=O)(=O)Cc2cc(C)cc(C)c2O)c1`, the T/C (dose: 100.0 mg/kg/injection, schedule: Q04DX002 (ip), vehicle: saline) was 101 % of control, the T/C (dose: 200.0 mg/kg/injection, schedule: Q04DX002 (ip), vehicle: saline) was 97 % of control and the T/C (dose: 400.0 mg/kg/injection, schedule: Q04DX002 (ip), vehicle: saline) was 91 % of control.
In the case of `S=C(NCCCN1CCN(CCCNC(=S)Nc2c3ccccc3nc3ccccc23)CC1)Nc1c2ccccc2nc2ccccc12`, the T/C [11] is reported as 98 % of control, the T/C [12] is reported as 100 % of control and 110 % of control and the T/C (dose: 25.0 mg/kg/injection, schedule: Q01DX005 (ip), vehicle: saline with Tween-80) is reported as 114 % of control and 116 % of control. The T/C [1] was 119 % of control and 120 % of control.
In the case of `CCCCOC1OCN(C2CCCCC2)CC1(C)C` (stereo not given), the T/C [7] is reported as 104 % of control and 121 % of control and the T/C [13] is reported as 120 % of control.
`[N-]=[N+]=NC1=CC(=O)C(c2ccccc2)=CC1=O` was tested, and the T/C [14] was 100 % of control, the T/C [7] was 95 % of control and the T/C [9] was 103 % of control.
With `CC(=O)Nc1cc(F)c2c(c1F)Cc1cc(F)ccc1-2` the T/C [8] was 100 % of control, the T/C [4] was 100 % of control and the T/C [9] was 90 % of control. The T/C [5] was 100 % of control and the T/C [6] was 104 % of control.
With `C=CC(C(=O)O)S(=O)(=O)O` (stereo not given) the T/C (dose: 20.0 mg/kg/injection, schedule: Q01DX009 (ip), vehicle: saline with Tween-80) was 112 % of control and the T/C (dose: 40.0 mg/kg/injection, schedule: Q01DX009 (ip), vehicle: saline with Tween-80) was 103 % of control.
For `CC1CN=C(c2ccc(NC(=O)c3ccc(NC(=O)c4ccc(C5=NCC(C)N5)cc4)cc3)cc2)N1` (stereo not given), the T/C [11] was 119 % of control and 123 % of control and the T/C [12] was 110 % of control.
For `COC(=O)C1=C(C(=O)OC)C2(C)OC1c1ccccc12` (stereo not given), the T/C (dose: 15.0 mg/kg/injection, schedule: Q01DX005 (ip), vehicle: saline with Tween-80) was 106 % of control, the T/C (dose: 30.0 mg/kg/injection, schedule: Q01DX005 (ip), vehicle: saline with Tween-80) was 106 % of control and the T/C (dose: 60.0 mg/kg/injection, schedule: Q01DX005 (ip), vehicle: saline with Tween-80) was 100 % of control and 102 % of control.
With `COc1c(NC(C)=O)c2c(c([N+](=O)[O-])c1OC)C(=O)OC2` the T/C (dose: 50.0 mg/kg/injection, schedule: Q01DX005 (ip), vehicle: Klucel (hydroxypropylcellulose) (HPC)) was 106 % of control, the T/C (dose: 100.0 mg/kg/injection, schedule: Q01DX005 (ip), vehicle: Klucel (hydroxypropylcellulose) (HPC)) was 104 % of control and the T/C (dose: 200.0 mg/kg/injection, schedule: Q01DX005 (ip), vehicle: Klucel (hydroxypropylcellulose) (HPC)) was 110 % of control.
With `CC(=O)Nc1c(Cl)nc2cc(N(C)C)ccc2c1Cl` the T/C (dose: 60.0 mg/kg/injection, schedule: Q01DX005 (ip), vehicle: Klucel + Tween-80) was 97 % of control, the T/C (dose: 120.0 mg/kg/injection, schedule: Q01DX005 (ip), vehicle: Klucel + Tween-80) was 96 % of control and the T/C (dose: 240.0 mg/kg/injection, schedule: Q01DX005 (ip), vehicle: Klucel + Tween-80) was 97 % of control.
In the case of `CC(O)C1/C=C/C=C\C(=O)O[C@@H]2C[C@H]3OC4C5OC5(C)CCC4(COC(=O)C4O[C@@]4(C)CCO1)[C@]2(C)[C@]31CO1` (stereo not given in full), the T/C (dose: 1.25 mg/kg/injection, schedule: Q01DX009 (ip), vehicle: Klucel (hydroxypropylcellulose) (HPC)) is reported as 104 % of control, the T/C (dose: 2.5 mg/kg/injection, schedule: Q01DX009 (ip), vehicle: Klucel (hydroxypropylcellulose) (HPC)) is reported as 113 % of control and the T/C (dose: 5.0 mg/kg/injection, schedule: Q01DX009 (ip), vehicle: Klucel (hydroxypropylcellulose) (HPC)) is reported as 118 % of control. For the same compound, the T/C (dose: 10.0 mg/kg/injection, schedule: Q01DX009 (ip), vehicle: Klucel (hydroxypropylcellulose) (HPC)) was 122 % of control.
With `O=c1oc2ccccc2c(O)c1C=Nc1ccccc1` the T/C [10] was 89 % of control and the T/C [14] was 88 % of control.
`CCOC(=O)c1cc(N(CCCl)CCCl)ccc1OC(=O)CC` was tested, and the T/C (dose: 50.0 mg/kg/injection, schedule: Q04DX003 (ip), vehicle: Klucel (hydroxypropylcellulose) (HPC)) was 100 % of control, the T/C (dose: 100.0 mg/kg/injection, schedule: Q04DX003 (ip), vehicle: Klucel (hydroxypropylcellulose) (HPC)) was 100 % of control and the T/C (dose: 200.0 mg/kg/injection, schedule: Q04DX003 (ip), vehicle: Klucel (hydroxypropylcellulose) (HPC)) was 97 % of control.
`O=[N+]([O-])c1cccc(/C=C/C=C/c2ccc(Cl)c(S(=O)(=O)F)c2)c1` was tested, and the T/C [8] was 86 % of control, the T/C [9] was 86 % of control and the T/C [13] was 86 % of control.
For `CC1(O)C(=O)OC(CO)C1O` (stereo not given), the T/C [1] was 102 % of control, the T/C [2] was 102 % of control and the T/C [3] was 100 % of control.
In the case of `CC1=CC(O)C(O)C2(C)C1CC(=O)C13COC4OC(CC1C4=O)C(O)C32` (stereo not given), the T/C (dose: 0.5 mg/kg/injection, schedule: Q01DX009 (ip), vehicle: saline) is reported as 102 % of control, the T/C (dose: 1.0 mg/kg/injection, schedule: Q01DX009 (ip), vehicle: saline) is reported as 103 % of control and the T/C (dose: 2.0 mg/kg/injection, schedule: Q01DX009 (ip), vehicle: Klucel (hydroxypropylcellulose) (HPC)) is reported as 96 % of control and 97 % of control. For the same compound, the T/C (dose: 2.0 mg/kg/injection, schedule: Q01DX009 (ip), vehicle: saline) was 107 % of control, the T/C (dose: 4.0 mg/kg/injection, schedule: Q01DX009 (ip), vehicle: Klucel (hydroxypropylcellulose) (HPC)) was 100 % of control and 111 % of control and 92 % of control and the T/C (dose: 4.0 mg/kg/injection, schedule: Q01DX009 (ip), vehicle: saline) was 102 % of control. The T/C (dose: 8.0 mg/kg/injection, schedule: Q01DX009 (ip), vehicle: Klucel (hydroxypropylcellulose) (HPC)) was 98 % of control and 94 % of control, the T/C (dose: 16.0 mg/kg/injection, schedule: Q01DX009 (ip), vehicle: Klucel (hydroxypropylcellulose) (HPC)) was 92 % of control and the T/C (dose: 32.0 mg/kg/injection, schedule: Q01DX009 (ip), vehicle: Klucel (hydroxypropylcellulose) (HPC)) was 86 % of control.
In the case of `O=C1CCCC2=C1C1(OC3C=CC=CN23)C(=O)c2ccccc2C1=O` (stereo not given), the T/C [1] is reported as 103 % of control, the T/C [2] is reported as 97 % of control and the T/C [3] is reported as 92 % of control.
